Assay results taken from patent US6673902B2, “Cyclin D binding factor, and uses thereof” (St. Jude Children's Research Hospital, priority 1996, dated 2004).

Key:
32P-BS2 Probe = test: EMSA with 32P-BS2 probe on transfection lysates of NIH-3T3 fibroblasts; type: binding; conditions: 32P labeled BS2 probe
Method: (§1) Double-stranded oligonucleotides containing potential DMP1 binding sites (BS1 and BS2) and mutated versions (M1-M4) (FIG. 5B) are end-labeled with ^32P using the Klenow fragment of DNA polymerase and α-^32P-dATP (6000 Ci/mmol; Dupont NEN) (8). Nuclear extracts from mouse NIH-3T3 or CTLL cells are prepared with buffer containing 0.4 M NaCl (2). Mammalian cell extracts (15 μg protein) or Sf9 lysates (corresponding to 5×10^2 infected cells) containing ˜4 ng recombinant DMP1 are mixed with 3 ng of ^32P-labeled probe (1×10^5 cpm) in 15 ul Binding buffer containing 2.5 μg of poly(dI-dC) and 2.5 μg BSA and incubated at 4° C. for 30 minutes. For competition experiments, the indicated amounts of unlabeled oligonucleotides are added to the reactions before addition of the labeled probe. In some experiments, a bacterially produced GST-Ets2 fusion protein containing the complete Ets2 DNA-binding domain (10) is used in place of Sf9 extracts containing recombinant DMP1. Protein-DNA complexes are separated on nondenaturing 4% polyacrylamide gels as described (8). Where indicated, antiserum to DMP1 together with 2.5 μg salmon testis DNA (Sigma; used to reduce nonspecific DNA binding activity caused by serum addition) is preincubated with extracts for 30 minutes at 4° C. prior to initiation of binding reactions. Immune complexes are either removed by adsorption to protein A-Sepharose beads (immunodepletion experiments) or are allowed to remain (“supershift” experiments).
A series of deletion mutants and a point mutant of DMP1, K319E, (in which the lysine at position 319 of SEQ ID NO:1 is replaced by a glutamic acid) were prepared and used to determine the DNA-binding domain of DMP1 by electrophoretic mobility shift assay (EMSA) using a ^32P labeled BS2 probe. The DNA-binding domain of DMP1 was mapped to a central region containing the three MYB repeats plus adjacent flanking sequences: a BstEII to NcoI fragment encoding amino acids 87-458 of SEQ ID NO:1 (Table 1). This region alone was necessary and sufficient for DNA binding.

[1] = system: DMP1-responsive promoter (pGL2BS2); test: Transactivation of luciferase reporter plasmid under control of a DMP1-responsive promoter in NIH-3T3 fibroblasts; type: cell-based, mouse; conditions: expression vector 3 μg/10 ml, pGL2BS2 8 μg/10 ml; vector without insert set to 1.0
From the text: Coexpression of a D-type cyclin with DMP1 overrides the ability of DMP1 to transactivate a luciferase gene under the control of an artificial DMP1-responsive promoter (Table 4), as well as the ability of DMP1 to inhibit cell growth.

NIH-3T3 fibroblasts = test: BrdU incorporation in transfected NIH-3T3 fibroblasts; type: cell-based, mouse
Method: BrdU is added to NIH-3T3 cells after the experimental treatment and the cells were incubated for twenty-two hours in DMEM plus 10% fetal calf serum (FCS). The cells were then stained for DMP1 expression and/or BrdU incorporation. The nucleic acids encoding the wildtype DMP1 and the deletion and point mutants had been constructed so as to express the corresponding proteins with Flag-tags. To stain for DMP1 expression, mouse monoclonal anti-Flag antibodies (12 μg/ml) [Kodak] were incubated with the cells in TBS-Ca^+ without FCS for one hour at room temperature. After washing the cells, horse anti-mouse biotinylated antibodies at a 1:500 dilution were added to the cells in TBS plus 5% FCS and incubated for 30 minutes at room temperature. After washing the cells, strefptavidin linked to Texas red [Amersham] was then added at a 1:500 dilution for 30 minutes at room temperature. To stain for BrdU incorporation, 1.5N HCl was added to the cells for ten minutes at room temperature to denature the DNA. After washing the cells, sheep anti-BrdU antibodies [Fitzgerald] at a 1:12 dilution were then added for one hour at room temperature. After washing the cells, rabbit FITC-conjugated anti-sheep antibodies [Vector] at 1:100 dilution was then incubated for 30 minutes at room temperature.
NIH-3T3 cells were placed on cover slides and transfected with the expression vectors (pFLEX-DMP1 or the corresponding vector containing the deletion or point mutants of mouse DMP1 plus or minus cyclin D or E) for fourteen hours. The cells were then washed twice and DMEM plus 10% FCS was added and the cells incubated for eight hours. Half of the cells were starved by washing twice with 0.1% FCS, and then incubated for twenty-four hours in 0.1% FCS in DMEM. The remaining cells were not starved but were incubated for twenty-four hours in DMEM plus 10% FCS without washing. BrdU was added to both groups of cells and the cells were incubated for twenty-two hours in DMEM plus 10% FCS.
The cells were then restimulated to enter the cell cycle synchronously with DMEM plus 10% FCS. At the same time, 5′-Bromo-2′ Deoxyuridine (BrdU) was added to the medium. The cells were fixed 22 hours later in methanol acetone (1:1) and stained for BrdU incorporation and DMP1 expression as described in the Materials and Methods.

[2] = system: 281 bp ARF promoter fragment; test: Transactivation of ARF promoter-luciferase reporter in NIH-3T3 cells; type: cell-based, mouse; conditions: NIH-3T3, 281 bp ARF promoter fragment-luciferase
Method: Transactivation assays. NIH-3T3 cells were transfected with 4 μg of pGL2-ARFpro BamHI or its DMP1 binding site mutant, with or without increasing amount of pFLEX-DMP1, pEVRFO-Ets1, pCMV-Ets2, pRcRSV-Elfl, pdEB-Fli1, p(IEB-EWS-Fli1 or pCMV-E2F-1 (89-437), and 4 μg β-actin SEAP control vectors [Inoue and Sherr, Mol. Cell. Biol. 18: 1590-1600 (1998); Inoue et al., J. Biol. Chem. 273:29188-29194 (1998); Davis and Roussel, Gene 171:265-269 (1996); Baily et al., Mol. Cell. Biol. 14:3230-3241 (1994)]. Transfections and normalization of luciferase levels with internal control SEAP levels were performed as described [Inoue and Sherr, Mol. Cell. Biol. 18:1590-1600 (1998)].
Similarly, DMP1 deletion mutants defective in transactivation [Inoue and Sherr, Mol. Cell. […] Mutation of the DMP1 binding site within the ARF promoter [changing CCCGGATGC, (SEQ ID NO:33) to CCCGTCGAC, (SEQ ID NO:42)] also completely abolished transactivation by wild-type DMP1 (FIG. 14C, mutant reporter). Therefore, sequences within the −189 to −181 ARF promoter segment were the only ones responsible for DMP1-mediated transactivation. Although Ets1 could bind to a 23 base pair oligonucleotide containing the DMP1 consensus site (FIG. 14B), several Ets proteins were unable to induce significant reporter gene expression from the more complex 281 base pair ARF promoter (FIG. 14C). […]

recombinant DMP1 [3] = molecular target: T1, recombinant DMP1 (Mus musculus, UniProt Q8CE22); test: EMSA competition with Sf9 lysates producing recombinant DMP1; type: binding; conditions: excess unlabeled oligonucleotide
T1 construct: made in house; host or cells: Sf9 insect cells, pAcYM1 baculovirus vector; used as crude lysate (~4 ng DMP1 per reaction)
T1 sequence (Q8CE22 1-761): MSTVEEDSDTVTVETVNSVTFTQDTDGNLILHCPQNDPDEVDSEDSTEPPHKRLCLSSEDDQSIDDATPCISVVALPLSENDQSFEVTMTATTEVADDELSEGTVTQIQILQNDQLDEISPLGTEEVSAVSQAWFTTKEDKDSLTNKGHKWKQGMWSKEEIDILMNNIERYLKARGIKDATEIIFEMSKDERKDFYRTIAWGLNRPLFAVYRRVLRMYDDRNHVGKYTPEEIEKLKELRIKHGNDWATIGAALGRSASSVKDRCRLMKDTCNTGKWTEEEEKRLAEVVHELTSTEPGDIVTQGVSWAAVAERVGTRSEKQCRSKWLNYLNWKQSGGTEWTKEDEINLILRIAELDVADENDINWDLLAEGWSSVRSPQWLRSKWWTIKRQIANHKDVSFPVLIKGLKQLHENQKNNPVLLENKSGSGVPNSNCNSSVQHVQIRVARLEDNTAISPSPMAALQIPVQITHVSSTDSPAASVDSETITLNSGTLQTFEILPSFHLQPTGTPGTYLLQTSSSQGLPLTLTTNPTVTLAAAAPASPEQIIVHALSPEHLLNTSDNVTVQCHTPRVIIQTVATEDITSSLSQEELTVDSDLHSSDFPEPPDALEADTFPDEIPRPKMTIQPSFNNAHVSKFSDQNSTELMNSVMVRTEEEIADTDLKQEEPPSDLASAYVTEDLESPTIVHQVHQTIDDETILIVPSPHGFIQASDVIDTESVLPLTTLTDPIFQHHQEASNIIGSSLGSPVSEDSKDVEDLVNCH
Method: as §1
(§2) Using electrophoretic mobility shift assays (EMSA) performed after mixing a titrated excess (3 ng) of ^32P-end labeled BS1 probe with Sf9 lysates producing DMP1 (˜4 ng recombinant protein per reaction), a BS1-containing protein complex is detected that was competed with an excess of unlabeled BS1 oligonucleotide but not with mutant oligonucleotides M1 and M2 (FIG. 6A). […] More subtle mutations within this region may be tolerated, because high concentrations of M4 competed for BS1 binding to both Ets2 and DMP1 in subsequent studies (FIG. 5B and see below). DMP1 also binds a BS2 probe, and the binding is competed by excess BS2 or BS1 (FIG. 6B). In agreement with the site selection frequencies (FIG. 5A), binding of ^32P-BS1 under equivalent conditions was competed more efficiently by excess unlabeled BS1 than by BS2 (FIG. 6B). […] In agreement, Ets2 binding to BS1 could be competed with excess unlabeled BS1 and M3, but not by BS2 (FIG. 6C). Therefore, although both DMP1 and Ets2 can each bind to BS1 sequences, their exclusive interactions with BS2 and M3, respectively, help to distinguish DMP1 and Ets binding activities (summarized in FIG. 5B).

GST-Ets2 fusion protein = molecular target: T2, GST-Ets2 fusion protein (Homo sapiens, UniProt P15036); test: EMSA competition with bacterial GST-Ets2 fusion protein; type: binding; conditions: excess unlabeled oligonucleotide
T2 construct: made in house; host or cells: bacteria
T2 sequence (P15036 363-443 limits assumed): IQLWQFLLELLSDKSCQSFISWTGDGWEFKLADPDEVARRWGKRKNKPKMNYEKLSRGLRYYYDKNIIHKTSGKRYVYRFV
Method: as §1, §2

recombinant DMP1 [4] = molecular target: T1, recombinant DMP1; test: EMSA competition, recombinant DMP1 and 281 base pair ARF promoter fragment; type: binding; conditions: 200-fold excess of unlabelled oligonucleotide
Method: Electrophoretic mobility shift assay (EMSA). Recombinant DMP1 protein was prepared in Sf9 cells [Hirai and Sherr, Mol. Cell. Biol. 16:6457-6467 (1996)]. Purified bacterial proteins representing the Ets1 DNA binding domain or full-length Ets1 [Inoue, et al., J. Biol. Chem. 273:29188-29194 (1998)] were used. EMSAs were performed [Inoue and Sherr, Mol. Cell. Biol. 18:1590-1600 (1998)] using either a 281-bp genomic fragment (−225 to +56) or double-stranded oligonucleotides containing the DMP1/Ets site obtained by annealing oligonucleotide 5′-[…]-3′ (sense strand SEQ ID NO:41); DMP1/Ets consensus sequence underlined) with a complementary antisense strand. For competition experiments, a 200-fold excess of unlabelled oligonucleotides was added to reaction mixtures before the probe. To verify the identity of the proteins in shifted complexes, reaction mixtures were incubated with control nonimmune rabbit serum (NRS), serum AF [Hirai and Sherr, Mol. Cell. Biol. 16:6457-6467 (1996)] and M-10 (both to DMP1 carboxylterminal epitopes), S-19 (DMP1 N-terminus), or C-20 (Ets1 C-terminus) before electrophoresis. M-10, S-19, and C-20 were from Santa Cruz Biotechnology.
The nucleotide sequence of the proximal promoter region of the murine ARF gene relative to the transcription initiation site as defined by S1 mapping analysis was determined (FIG. 13). […]

Luciferase Activity [1]	Substance	affinity for the DNA probe relative to wildtype (32P-BS2 Probe)	% Cells BrdU Positive (NIH-3T3 fibroblasts; Table 2, expression vector 3 μg/10 ml) [%]	% Cells BrdU Positive in 10% FCS (NIH-3T3 fibroblasts; nonstarved cells, additive None, labeled 22 hours) [%]	% Cells BrdU Positive in 0.1% FCS (NIH-3T3 fibroblasts; starved cells, additive None, labeled 22 hours) [%]	ARF promoter reporter gene expression [2]	competition for 32P-BS1 probe binding to DMP1 (recombinant DMP1 [3])	competition for BS2 probe binding to DMP1 (recombinant DMP1 [3])	competition for BS1 binding to Ets2 (GST-Ets2 fusion protein)	competition for DMP1 binding to the 281 base pair ARF promoter fragment (recombinant DMP1 [4])
1.1	M11: DMP1 point mutant, lysine at position 319 of SEQ ID NO:1 replaced by glutamic acid	about 2%	48	54	47	had no activity	–	–	–	–
–	oligonucleotide BS2: probe/competitor BS2, SEQ ID NO:11, DMP1 binding site CCCGTATGT with GTA core (DNA AATTGACCCGTATGTAGGTACGC; chemistry not given here)	–	–	–	–	–	competed	competed	not	completely inhibited
